Data reported in US8551957B2, “Pharmaceutical composition comprising a glucopyranosyl-substituted benzene derivate” (Boehringer Ingelheim International GmbH, priority 2007, dated 2013).

How the values were obtained:
[1] = system: Zucker Diabetic Fatty (ZDF) rats (ZDF/Crl-Lepr^fa); test: oral glucose tolerance test in overnight fasted ZDF rats (1st Example); format: in vivo, rat; settings: male ZDF rats
Method: According to a first example an oral glucose tolerance test is performed in overnight fasted 9-weeks old male Zucker Diabetic Fatty (ZDF) rats (ZDF/Crl-Lepr^fa). A pre-dose blood sample is obtained by tail bleed. Blood glucose is measured with a glucometer, and the animals are randomized for blood glucose (n=5/group). Subsequently, the groups receive a single oral administration of either vehicle alone (0.5% aqueous hydroxyethylcellulose containing 3 mM HCl and 0.015% Polysorbat 80) or vehicle containing either the glucopyranosyl-substituted benzene derivative or the DPP IV inhibitor or the combination of the glucopyranosyl-substituted benzene derivative with the DPP IV inhibitor. The animals receive an oral glucose load (2 g/kg) 30 min after compound administration. Blood glucose is measured in tail blood 30 min, 60 min, 90 min, 120 min, and 180 min after the glucose challenge. Glucose excursion is quantified by calculating the reactive glucose AUC. The data are presented as mean±SEM. The two-sided unpaired Student t-test is used for statistical comparison of the control group and the active groups.
“Cpd. A” is the DPP IV inhibitor 1-[(4-methyl-quinazolin-2-yl)methyl]-3-methyl-7-(2-butyn-1-yl)-8-(3-(R)-amino-piperidin-1-yl)-xanthine at a dose of 1 mg/kg. Cpd. […]

[2] = system: Sprague Dawley rats (Crl:CD(SD)); test: oral glucose tolerance test in overnight fasted Sprague Dawley rats (2nd Example); format: in vivo, rat; settings: male Sprague Dawley rats, not statistically significant
Method: (§1) According to a second example an oral glucose tolerance test is performed in overnight fasted male Sprague Dawley rats (Crl:CD(SD)) with a body weight of about 200 g. A pre-dose blood sample is obtained by tail bleed. Blood glucose is measured with a glucometer, and the animals are randomized for blood glucose (n=5/group). Subsequently, the groups receive a single oral administration of either vehicle alone (0.5% aqueous hydroxyethylcellulose containing 0.015% Polysorbat 80) or vehicle containing either the glucopyranosyl-substituted benzene derivative or the DPPIV inhibitor or the combination of the glucopyranosyl-substituted benzene derivative with the DPPIV inhibitor. The animals receive an oral glucose load (2 g/kg) 30 min after compound administration. Blood glucose is measured in tail blood 30 min, 60 min, 90 min, and 120 min after the glucose challenge. Glucose excursion is quantified by calculating the reactive glucose AUC. The data are presented as mean±S.E.M. Statistical comparisons are conducted by Student's t test.
“Cpd. A” is the glucopyranosyl-substituted benzene derivative (9), i.e. 1-chloro-4-(β-D-glucopyranos-1-yl)-2-[4-((S)-tetrahydrofuran-3-yloxy)-benzyl]-benzene, administered at a dose of 3 mg/kg. The DPPIV inhibitor saxagliptin is administered at a dose of 0.3 mg/kg. […]

[3] = system: Sprague Dawley rats (Crl:CD(SD)); test: oral glucose tolerance test in overnight fasted Sprague Dawley rats (3rd Example); format: in vivo, rat; settings: male Sprague Dawley rats, not statistically significant
Method: as §1
In a third example the same experimental setting is employed as in the second example as described herein before. The glucopyranosyl-substituted benzene derivative (9), i.e. 1-chloro-4-(β-D-glucopyranos-1-yl)-2-[4-((S)-tetrahydrofuran-3-yloxy)-benzyl]-benzene, is administered at a dose of 3 mg/kg. […]

[4] = in the diabetic, metformin on its own; cited from earlier work
[5] = single oral dose 3 mg/kg 30 min before glucose load 2 g/kg

OC[C@H]1O[C@@H](c2ccc(Cl)c(Cc3ccc(O[C@H]4CCOC4)cc3)c2)[C@H](O)[C@@H](O)[C@@H]1O [(9), 1-chloro-4-(β-D-glucopyranos-1-yl)-2-[4-((S)-tetrahydrofuran-3-yloxy)-benzyl]-benzene]
reduction of glucose excursion (reactive glucose AUC) ([1]; single oral dose 3 mg/kg 30 min before oral glucose load 2 g/kg): 51%
reduction of glucose excursion (reactive glucose AUC) [2, 5]: 21%
reduction of glucose excursion (reactive glucose AUC) [3, 5]: 21%

CC#CCn1c(N2CCC[C@@H](N)C2)nc2c1c(=O)n(Cc1nc(C)c3ccccc3n1)c(=O)n2C [Cpd. A, 1-[(4-methyl-quinazolin-2-yl)methyl]-3-methyl-7-(2-butyn-1-yl)-8-(3-(R)-amino-piperidin-1-yl)-xanthine]
reduction of glucose excursion (reactive glucose AUC) ([1]; single oral dose 1 mg/kg 30 min before oral glucose load 2 g/kg): 56%

CN(C)C(=N)N=C(N)N [metformin]
average improvement in the HbA1c value [4]: 1.0-1.5%

N#C[C@@H]1C[C@@H]2C[C@@H]2N1C(=O)[C@@H](N)C12CC3CC(CC(O)(C3)C1)C2 [saxagliptin, (1S,3S,5S)-2-{(2S)-2-amino-2-(3-hydroxyadamantan-1-yl)acetyl}-2-azabicyclo[3.1.0]hexane-3-carbonitrile, reference compound]
reduction of glucose excursion (reactive glucose AUC) ([2]; single oral dose 0.3 mg/kg 30 min before glucose load 2 g/kg): 12%

N[C@@H](CC(=O)N1CCn2c(nnc2C(F)(F)F)C1)Cc1cc(F)c(F)cc1F [sitagliptin, (3R)-3-amino-1-[3-(trifluoromethyl)-5,6,7,8-tetrahydro-5H-[1,2,4]triazolo[4,3-a]pyrazin-7-yl]-4-(2,4,5-trifluorophenyl)butan-1-one, reference compound]
reduction of glucose excursion (reactive glucose AUC) ([3]; single oral dose 10 mg/kg 30 min before glucose load 2 g/kg): 16%
